Laboratory results from the NIST ThermoML archive (doi:10.1021/je0400052).

Key:
[1] = xn = mol fraction of the nth substance listed; conditions: 101.3 kPa, Liquid
[2] = refractive index (Na D-line) (dimensionless); xn = mol fraction of the nth substance listed; conditions: 101.3 kPa, Liquid

CCOC=O [ethyl methanoate] + CCc1ccccc1
Conditions	mass density, [1] [kg/m3]	refractive index, [2]	viscosity, [1] [mPa·s]
303.15 K, x1 = 0.1478	862.2	1.4809	0.558
303.15 K, x1 = 0.2728	869.9	1.4691	0.527
303.15 K, x1 = 0.3884	871.2	1.4568	0.499
303.15 K, x1 = 0.4978	876.3	1.4431	0.473
303.15 K, x1 = 0.6	881.8	1.4286	0.45
303.15 K, x1 = 0.6925	886.6	1.4157	0.43
303.15 K, x1 = 0.7768	891	1.4058	0.413
303.15 K, x1 = 0.851	896.6	1.3938	0.397
303.15 K, x1 = 0.9309	903.7	1.3709	0.38
313.15 K, x1 = 0.1478	853.7	1.4791	0.502
313.15 K, x1 = 0.2728	857.7	1.4682	0.476
313.15 K, x1 = 0.3884	861.8	1.4532	0.452
313.15 K, x1 = 0.4978	866.3	1.4415	0.42
313.15 K, x1 = 0.6	873.2	1.4269	0.409
313.15 K, x1 = 0.6925	875.9	1.4142	0.391
313.15 K, x1 = 0.7768	880	1.4042	0.376
313.15 K, x1 = 0.851	885.1	1.3921	0.363
313.15 K, x1 = 0.9309	891.7	1.3695	0.351

CCOC=O [ethyl methanoate] + Cc1ccc(C)cc1
Conditions	mass density, [1] [kg/m3]	refractive index, [2]	viscosity, [1] [mPa·s]
303.15 K, x1 = 0.1658	857.7	1.4785	0.523
303.15 K, x1 = 0.2572	861.1	1.4746	0.503
303.15 K, x1 = 0.4068	868.2	1.4671	0.472
303.15 K, x1 = 0.5039	871.6	1.4532	0.452
303.15 K, x1 = 0.6037	878.8	1.451	0.434
303.15 K, x1 = 0.6916	883.4	1.4239	0.418
303.15 K, x1 = 0.7854	889.6	1.4121	0.403
303.15 K, x1 = 0.8588	896	1.3901	0.39
303.15 K, x1 = 0.9381	902.9	1.3711	0.375
313.15 K, x1 = 0.1658	849	1.4779	0.477
313.15 K, x1 = 0.2572	851.7	1.4732	0.451
313.15 K, x1 = 0.4068	858.8	1.4611	0.424
313.15 K, x1 = 0.5039	861.8	1.4499	0.407
313.15 K, x1 = 0.6037	868.8	1.4491	0.393
313.15 K, x1 = 0.6916	873.5	1.4201	0.38
313.15 K, x1 = 0.7854	877.8	1.4091	0.371
313.15 K, x1 = 0.8588	884.7	1.3891	0.36
313.15 K, x1 = 0.9381	891	1.3689	0.348
